# Source: article PMC11919252 (eLife, 2025)
# How the values were obtained:
# [1] = test system: WT and Tac1::Calca DKO mice; experiment: Oxaliplatin cold allodynia, Cold Plate; format: in vivo, mouse; details: intraplantar oxaliplatin, one day after treatment, Cold Plate at 10 °C, 5 min
# From the text: The plate was set to the desired temperature. A camera set up with a mirror was used for better visibility of the mouse on the hot plate. A clear cylindrical tube was placed around the hot plate to ensure the mouse cannot escape. Once the hot plate reached the set temperature, the mouse was placed on the hot plate and the top of the cylinder was covered. At the cut-off time, the mouse was taken off the hot plate and placed back in the cage. The latency to lick was scored post-hoc using the recorded videos by a blinded observer.
# Chemotherapy-induced neuropathy was induced in mice by intraplantar injection of oxaliplatin into the left hind paw ([Deuis et al., 2013]; [MacDonald et al., 2021]). Oxaliplatin was made up to a dose of 80 µg in 40 µl of 5% glucose solution, due to its instability in chloride-containing saline solution. The number of nocifensive behaviors in 5 min was assessed on the Cold Plate held at 10 °C 24 hr later.
# [2] = test system: WT and Tac1::Calca DKO mice; details: background statement on oxaliplatin; ref MacDonald et al., 2021; cited from earlier work
# From the text: Lastly, we investigated how dual peptide deletion affected the development of allodynia symptoms, where innocuous stimuli are perceived as painful, in two mouse models of neuropathic pain ([Jensen and Finnerup, 2014]).
structure (smiles),measurement,setting,value
O=C1[O][Pt]2([NH][C@@H]3CCCC[C@H]3[NH]2)[O]C1=O [oxaliplatin],Pain-like behaviors on Cold Plate,[1],both DKO and WT animals displayed pronounced pain-like behaviors
same,Cold allodynia evoked by oxaliplatin,[2],evokes extreme cold allodynia
